This note sets out measurements from US6949564B2, “NPY-5 antagonists” (Pfizer Inc., priority 2002, dated 2005).

In this experiment the test system is endogenous NPY response (Y1) of human Bowes melanoma cells (HMCB). The experiment in a line: Block of endogenous NPY response in host human Bowes melanoma cells. The following applies: at 10 uM; host Bowes melanoma cells with low levels of Y1 responses.

Take `NC(N)=NCCC[C@@H](NC(=O)C(c1ccccc1)c1ccccc1)C(=O)NCc1ccc(O)cc1` [BIBP3226]: the “block of the endogenous NPY response” value is on record as “completely blocks”.
